Data from the kinase profiling compilation of Christmann-Franck et al. (2016).

Legend:
Assay in all cases: KINOMEscan competition binding
Conditions in all cases: compound 10.0 µM
EPHA8 (human) = EPHA8 (human) (UniProt P29322)
EPHA2 (human) = EPHA2 (human) (UniProt P29317)
MLTK (human) = MLTK (human) (UniProt Q9NYL2)
RPS6KA4 KD1 (human) = RPS6KA4 KD1 (human) (UniProt O75676)
MAPK11 (human) = MAPK11 (human) (UniProt Q15759)
PRKG2 (human) = PRKG2 (human) (UniProt Q13237)
[1] = tested on: ABL1 (human), P00519 [M351T]
PTK6 (human) = PTK6 (human) (UniProt Q13882)
STK3 (human) = STK3 (human) (UniProt Q13188)
BRSK1 (human) = BRSK1 (human) (UniProt Q8TDC3)
[2] = tested on: RET (human), P07949 [V804M]
ACVR1B (human) = ACVR1B (human) (UniProt P36896)
BMPR2 (human) = BMPR2 (human) (UniProt Q13873)
STK35 (human) = STK35 (human) (UniProt Q8TDR2)
DCLK1 (human) = DCLK1 (human) (UniProt O15075)
SRMS (human) = SRMS (human) (UniProt Q9H3Y6)
BLK (human) = BLK (human) (UniProt P51451)
STK32C (human) = STK32C (human) (UniProt Q86UX6)
ROS1 (human) = ROS1 (human) (UniProt P08922)
FYN (human) = FYN (human) (UniProt P06241)
STK25 (human) = STK25 (human) (UniProt O00506)
CHEK2 (human) = CHEK2 (human) (UniProt O96017)
EPHB3 (human) = EPHB3 (human) (UniProt P54753)
HCK (human) = HCK (human) (UniProt P08631)
TESK1 (human) = TESK1 (human) (UniProt Q15569)
PRKD2 (human) = PRKD2 (human) (UniProt Q9BZL6)
STK38L (human) = STK38L (human) (UniProt Q9Y2H1)
PLK3 (human) = PLK3 (human) (UniProt Q9H4B4)
MAP3K9 (human) = MAP3K9 (human) (UniProt P80192)
NTRK2 (human) = NTRK2 (human) (UniProt Q16620)
AKT1 (human) = AKT1 (human) (UniProt P31749)
INSRR (human) = INSRR (human) (UniProt P14616)
CDC2L2 (human) = CDC2L2 (human) (UniProt Q9UQ88)
FGR (human) = FGR (human) (UniProt P09769)
MAPK14 (human) = MAPK14 (human) (UniProt Q16539)
PTK2 (human) = PTK2 (human) (UniProt Q05397)
MST1R (human) = MST1R (human) (UniProt Q04912)
FLT4 (human) = FLT4 (human) (UniProt P35916)
IRAK3 (human) = IRAK3 (human) (UniProt Q9Y616)
PIK3CD (human) = PIK3CD (human) (UniProt O00329)
PDPK1 (human) = PDPK1 (human) (UniProt O15530)
MYLK2 (human) = MYLK2 (human) (UniProt Q9H1R3)
PAK6 (human) = PAK6 (human) (UniProt Q9NQU5)
Chain of PAK6 (human) (Q9NQU5 whole entry, looked up): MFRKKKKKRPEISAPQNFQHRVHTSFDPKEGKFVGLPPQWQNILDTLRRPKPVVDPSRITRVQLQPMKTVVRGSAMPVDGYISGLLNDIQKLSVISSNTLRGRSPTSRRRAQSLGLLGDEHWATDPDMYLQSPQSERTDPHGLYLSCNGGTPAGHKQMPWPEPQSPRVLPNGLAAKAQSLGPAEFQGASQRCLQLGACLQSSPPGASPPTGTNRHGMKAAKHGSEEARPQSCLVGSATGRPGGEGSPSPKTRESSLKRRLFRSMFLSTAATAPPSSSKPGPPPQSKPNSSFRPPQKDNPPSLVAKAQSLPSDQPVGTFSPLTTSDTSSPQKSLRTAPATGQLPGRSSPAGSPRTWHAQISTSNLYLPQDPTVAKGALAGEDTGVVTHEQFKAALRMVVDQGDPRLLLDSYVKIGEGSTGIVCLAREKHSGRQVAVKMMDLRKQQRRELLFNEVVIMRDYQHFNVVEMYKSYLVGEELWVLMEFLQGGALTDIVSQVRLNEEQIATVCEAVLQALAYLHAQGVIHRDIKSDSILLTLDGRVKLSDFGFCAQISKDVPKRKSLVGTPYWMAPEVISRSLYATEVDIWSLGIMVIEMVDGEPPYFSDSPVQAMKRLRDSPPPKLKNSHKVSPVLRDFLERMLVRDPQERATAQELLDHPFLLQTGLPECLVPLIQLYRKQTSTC

Chain of CHEK2 (human) (O96017 whole entry, looked up): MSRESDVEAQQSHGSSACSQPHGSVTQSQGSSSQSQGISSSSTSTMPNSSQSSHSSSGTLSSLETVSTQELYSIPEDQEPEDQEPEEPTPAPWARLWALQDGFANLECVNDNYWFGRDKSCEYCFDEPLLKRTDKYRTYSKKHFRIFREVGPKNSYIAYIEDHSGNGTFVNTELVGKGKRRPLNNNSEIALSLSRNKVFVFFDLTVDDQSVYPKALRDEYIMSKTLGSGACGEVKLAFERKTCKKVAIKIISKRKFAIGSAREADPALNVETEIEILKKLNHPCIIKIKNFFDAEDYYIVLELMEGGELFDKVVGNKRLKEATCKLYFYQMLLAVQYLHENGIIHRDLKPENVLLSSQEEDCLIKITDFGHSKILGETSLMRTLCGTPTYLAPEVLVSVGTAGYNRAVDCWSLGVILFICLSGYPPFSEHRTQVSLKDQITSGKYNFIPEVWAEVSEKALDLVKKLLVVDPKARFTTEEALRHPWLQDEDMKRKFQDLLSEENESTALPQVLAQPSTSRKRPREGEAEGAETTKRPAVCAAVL
Chain of MAPK14 (human) (Q16539 whole entry, looked up): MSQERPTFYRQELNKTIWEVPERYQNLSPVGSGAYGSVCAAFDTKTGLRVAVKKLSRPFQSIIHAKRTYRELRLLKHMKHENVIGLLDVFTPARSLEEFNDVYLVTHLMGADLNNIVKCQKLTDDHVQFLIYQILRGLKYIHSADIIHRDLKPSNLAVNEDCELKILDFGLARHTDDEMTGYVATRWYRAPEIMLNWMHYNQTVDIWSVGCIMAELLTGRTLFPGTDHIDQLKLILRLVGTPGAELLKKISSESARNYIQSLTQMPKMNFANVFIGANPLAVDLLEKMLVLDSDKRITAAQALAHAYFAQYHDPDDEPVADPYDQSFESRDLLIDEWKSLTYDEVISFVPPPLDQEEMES
Chain of STK3 (human) (Q13188 whole entry, looked up): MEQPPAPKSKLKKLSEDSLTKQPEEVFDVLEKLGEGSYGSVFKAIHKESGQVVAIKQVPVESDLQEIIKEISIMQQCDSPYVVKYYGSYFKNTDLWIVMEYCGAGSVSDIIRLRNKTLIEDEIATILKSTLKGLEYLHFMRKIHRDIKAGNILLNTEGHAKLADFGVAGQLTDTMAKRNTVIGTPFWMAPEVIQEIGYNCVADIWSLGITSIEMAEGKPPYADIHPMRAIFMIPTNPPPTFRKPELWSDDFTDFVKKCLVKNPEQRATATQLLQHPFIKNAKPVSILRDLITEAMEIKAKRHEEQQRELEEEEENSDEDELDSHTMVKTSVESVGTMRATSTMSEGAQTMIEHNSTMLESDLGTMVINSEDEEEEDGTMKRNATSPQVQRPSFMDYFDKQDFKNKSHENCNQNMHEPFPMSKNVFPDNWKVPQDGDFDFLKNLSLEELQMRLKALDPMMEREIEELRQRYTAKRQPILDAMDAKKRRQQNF
Chain of MYLK2 (human) (Q9H1R3 whole entry, looked up): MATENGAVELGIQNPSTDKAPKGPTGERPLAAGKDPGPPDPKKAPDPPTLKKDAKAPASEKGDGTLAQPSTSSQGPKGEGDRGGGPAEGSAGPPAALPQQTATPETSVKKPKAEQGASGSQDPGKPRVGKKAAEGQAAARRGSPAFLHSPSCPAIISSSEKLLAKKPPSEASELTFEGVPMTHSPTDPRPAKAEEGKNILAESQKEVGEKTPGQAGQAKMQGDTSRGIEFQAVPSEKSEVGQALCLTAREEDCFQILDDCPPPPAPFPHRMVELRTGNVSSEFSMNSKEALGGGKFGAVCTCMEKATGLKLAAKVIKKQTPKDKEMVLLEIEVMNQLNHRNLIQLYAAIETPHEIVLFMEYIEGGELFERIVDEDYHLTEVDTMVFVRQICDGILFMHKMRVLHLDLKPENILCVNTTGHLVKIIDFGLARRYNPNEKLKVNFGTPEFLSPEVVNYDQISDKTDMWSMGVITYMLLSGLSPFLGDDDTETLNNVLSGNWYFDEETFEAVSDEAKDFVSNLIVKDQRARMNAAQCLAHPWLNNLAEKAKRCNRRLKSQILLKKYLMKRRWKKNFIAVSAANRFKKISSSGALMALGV
Chain of PRKG2 (human) (Q13237 whole entry, looked up): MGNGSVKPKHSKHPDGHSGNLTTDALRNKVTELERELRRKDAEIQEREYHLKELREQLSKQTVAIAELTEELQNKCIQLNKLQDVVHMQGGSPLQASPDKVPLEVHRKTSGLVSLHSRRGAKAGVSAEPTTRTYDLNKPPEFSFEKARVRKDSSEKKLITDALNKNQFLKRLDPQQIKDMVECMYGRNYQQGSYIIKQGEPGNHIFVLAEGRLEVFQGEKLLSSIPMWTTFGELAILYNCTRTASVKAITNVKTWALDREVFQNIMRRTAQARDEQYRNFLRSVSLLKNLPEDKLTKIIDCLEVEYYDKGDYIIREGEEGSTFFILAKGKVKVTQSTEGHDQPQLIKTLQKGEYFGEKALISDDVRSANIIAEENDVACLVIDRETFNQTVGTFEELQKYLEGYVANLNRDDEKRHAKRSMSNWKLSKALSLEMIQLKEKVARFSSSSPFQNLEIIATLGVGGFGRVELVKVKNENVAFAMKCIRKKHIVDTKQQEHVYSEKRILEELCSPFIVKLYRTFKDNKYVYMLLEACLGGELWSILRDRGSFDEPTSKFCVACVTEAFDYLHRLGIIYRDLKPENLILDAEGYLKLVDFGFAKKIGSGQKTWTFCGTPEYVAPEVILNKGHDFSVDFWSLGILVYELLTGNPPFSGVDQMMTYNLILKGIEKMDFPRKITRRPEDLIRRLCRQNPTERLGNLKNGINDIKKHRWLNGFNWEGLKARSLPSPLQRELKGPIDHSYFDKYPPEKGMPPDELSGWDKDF
Chain of BMPR2 (human) (Q13873 whole entry, looked up): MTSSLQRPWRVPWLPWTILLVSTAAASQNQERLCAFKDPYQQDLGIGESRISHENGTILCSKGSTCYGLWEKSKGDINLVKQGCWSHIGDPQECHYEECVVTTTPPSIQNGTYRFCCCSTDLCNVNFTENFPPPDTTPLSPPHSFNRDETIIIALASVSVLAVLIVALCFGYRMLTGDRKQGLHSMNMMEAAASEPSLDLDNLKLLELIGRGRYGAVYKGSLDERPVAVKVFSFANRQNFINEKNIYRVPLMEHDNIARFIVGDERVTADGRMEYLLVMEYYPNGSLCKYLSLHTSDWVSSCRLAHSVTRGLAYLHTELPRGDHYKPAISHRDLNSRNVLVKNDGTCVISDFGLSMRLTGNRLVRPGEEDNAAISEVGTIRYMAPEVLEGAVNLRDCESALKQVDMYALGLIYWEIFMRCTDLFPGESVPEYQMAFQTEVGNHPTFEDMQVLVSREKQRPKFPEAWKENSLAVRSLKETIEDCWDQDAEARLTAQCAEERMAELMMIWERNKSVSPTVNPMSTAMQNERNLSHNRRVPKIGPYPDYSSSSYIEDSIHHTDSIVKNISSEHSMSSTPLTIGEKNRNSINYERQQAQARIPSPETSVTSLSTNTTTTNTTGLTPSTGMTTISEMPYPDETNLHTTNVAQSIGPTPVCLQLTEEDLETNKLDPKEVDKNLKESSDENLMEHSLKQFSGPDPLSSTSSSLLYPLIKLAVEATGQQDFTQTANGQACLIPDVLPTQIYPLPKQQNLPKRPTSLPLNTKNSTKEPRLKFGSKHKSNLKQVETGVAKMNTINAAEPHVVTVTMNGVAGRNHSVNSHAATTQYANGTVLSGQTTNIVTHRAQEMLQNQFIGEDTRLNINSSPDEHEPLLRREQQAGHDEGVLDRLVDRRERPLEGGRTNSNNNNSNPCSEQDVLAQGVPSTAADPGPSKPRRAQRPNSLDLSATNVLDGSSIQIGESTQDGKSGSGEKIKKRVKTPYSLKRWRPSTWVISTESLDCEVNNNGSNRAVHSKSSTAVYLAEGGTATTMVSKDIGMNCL
Chain of STK35 (human) (Q8TDR2 whole entry, looked up): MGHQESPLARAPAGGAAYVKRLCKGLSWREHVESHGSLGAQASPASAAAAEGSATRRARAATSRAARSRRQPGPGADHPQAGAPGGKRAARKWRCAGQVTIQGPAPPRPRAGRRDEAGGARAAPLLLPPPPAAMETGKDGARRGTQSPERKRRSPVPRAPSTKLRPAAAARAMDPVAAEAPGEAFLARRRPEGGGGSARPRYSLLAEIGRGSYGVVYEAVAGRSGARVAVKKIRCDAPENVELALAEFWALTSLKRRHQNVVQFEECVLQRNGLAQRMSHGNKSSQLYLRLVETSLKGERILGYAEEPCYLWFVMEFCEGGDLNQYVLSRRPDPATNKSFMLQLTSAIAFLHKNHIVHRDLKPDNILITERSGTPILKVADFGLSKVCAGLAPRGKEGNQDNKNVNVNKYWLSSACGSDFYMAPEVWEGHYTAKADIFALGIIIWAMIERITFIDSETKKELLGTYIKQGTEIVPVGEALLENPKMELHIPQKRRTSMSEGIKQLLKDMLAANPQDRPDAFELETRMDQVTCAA

CN1C(=O)c2ccccc2N(C)c2nc(NS(=O)(=O)c3ccc(N)cc3)ncc21
kinase still bound, per cent of control (EPHA8 (human)): 100%
kinase still bound, per cent of control (EPHA2 (human)): 100%
kinase still bound, per cent of control (MLTK (human)): 100%
kinase still bound, per cent of control (RPS6KA4 KD1 (human)): 100%
kinase still bound, per cent of control (MAPK11 (human)): 100%
kinase still bound, per cent of control (PRKG2 (human)): 100%
kinase still bound, per cent of control [1]: 96%
kinase still bound, per cent of control (PTK6 (human)): 100%
kinase still bound, per cent of control (STK3 (human)): 87%
kinase still bound, per cent of control (BRSK1 (human)): 97%
kinase still bound, per cent of control [2]: 100%
kinase still bound, per cent of control (ACVR1B (human)): 100%
kinase still bound, per cent of control (BMPR2 (human)): 100%
kinase still bound, per cent of control (STK35 (human)): 100%
kinase still bound, per cent of control (DCLK1 (human)): 39%
kinase still bound, per cent of control (SRMS (human)): 84%
kinase still bound, per cent of control (BLK (human)): 100%
kinase still bound, per cent of control (STK32C (human)): 100%
kinase still bound, per cent of control (ROS1 (human)): 100%
kinase still bound, per cent of control (FYN (human)): 100%
kinase still bound, per cent of control (STK25 (human)): 100%
kinase still bound, per cent of control (CHEK2 (human)): 100%
kinase still bound, per cent of control (EPHB3 (human)): 100%
kinase still bound, per cent of control (HCK (human)): 100%
kinase still bound, per cent of control (TESK1 (human)): 100%
kinase still bound, per cent of control (PRKD2 (human)): 100%
kinase still bound, per cent of control (STK38L (human)): 100%
kinase still bound, per cent of control (PLK3 (human)): 100%
kinase still bound, per cent of control (MAP3K9 (human)): 100%
kinase still bound, per cent of control (NTRK2 (human)): 53%
kinase still bound, per cent of control (AKT1 (human)): 100%
kinase still bound, per cent of control (INSRR (human)): 100%
kinase still bound, per cent of control (CDC2L2 (human)): 100%
kinase still bound, per cent of control (FGR (human)): 100%
kinase still bound, per cent of control (MAPK14 (human)): 100%
kinase still bound, per cent of control (PTK2 (human)): 100%
kinase still bound, per cent of control (MST1R (human)): 100%
kinase still bound, per cent of control (FLT4 (human)): 100%
kinase still bound, per cent of control (IRAK3 (human)): 100%
kinase still bound, per cent of control (PIK3CD (human)): 91%
kinase still bound, per cent of control (PDPK1 (human)): 100%
kinase still bound, per cent of control (MYLK2 (human)): 88%
kinase still bound, per cent of control (PAK6 (human)): 100%

CN1C(=O)c2ccccc2N(C)c2nc(Nc3ccc(N4CCC(O)CC4)cc3)ncc21
kinase still bound, per cent of control (EPHA8 (human)): 100%
kinase still bound, per cent of control (EPHA2 (human)): 99%
kinase still bound, per cent of control (MLTK (human)): 100%
kinase still bound, per cent of control (RPS6KA4 KD1 (human)): 100%
kinase still bound, per cent of control (MAPK11 (human)): 88%
kinase still bound, per cent of control (PRKG2 (human)): 95%
kinase still bound, per cent of control [1]: 3%
kinase still bound, per cent of control (PTK6 (human)): 86%
kinase still bound, per cent of control (STK3 (human)): 27%
kinase still bound, per cent of control (BRSK1 (human)): 56%
kinase still bound, per cent of control [2]: 3%
kinase still bound, per cent of control (ACVR1B (human)): 91%
kinase still bound, per cent of control (BMPR2 (human)): 78%
kinase still bound, per cent of control (STK35 (human)): 96%
kinase still bound, per cent of control (DCLK1 (human)): 1.8%
kinase still bound, per cent of control (SRMS (human)): 87%
kinase still bound, per cent of control (BLK (human)): 12%
kinase still bound, per cent of control (STK32C (human)): 100%
kinase still bound, per cent of control (ROS1 (human)): 35%
kinase still bound, per cent of control (FYN (human)): 35%
kinase still bound, per cent of control (STK25 (human)): 96%
kinase still bound, per cent of control (CHEK2 (human)): 81%
kinase still bound, per cent of control (EPHB3 (human)): 100%
kinase still bound, per cent of control (HCK (human)): 35%
kinase still bound, per cent of control (TESK1 (human)): 97%
kinase still bound, per cent of control (PRKD2 (human)): 99%
kinase still bound, per cent of control (STK38L (human)): 82%
kinase still bound, per cent of control (PLK3 (human)): 97%
kinase still bound, per cent of control (MAP3K9 (human)): 91%
kinase still bound, per cent of control (NTRK2 (human)): 36%
kinase still bound, per cent of control (AKT1 (human)): 100%
kinase still bound, per cent of control (INSRR (human)): 96%
kinase still bound, per cent of control (CDC2L2 (human)): 100%
kinase still bound, per cent of control (FGR (human)): 6.6%
kinase still bound, per cent of control (MAPK14 (human)): 100%
kinase still bound, per cent of control (PTK2 (human)): 75%
kinase still bound, per cent of control (MST1R (human)): 94%
kinase still bound, per cent of control (FLT4 (human)): 100%
kinase still bound, per cent of control (IRAK3 (human)): 82%
kinase still bound, per cent of control (PIK3CD (human)): 58%
kinase still bound, per cent of control (PDPK1 (human)): 97%
kinase still bound, per cent of control (MYLK2 (human)): 80%
kinase still bound, per cent of control (PAK6 (human)): 100%
